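Growth conditions: 96-well plates. Treatment: test compound, 48 hours, 5 concentrations. Analysis: linear interpolation between bracketing concentrations; unreached endpoints set to highest concentration. Here, GI50 denotes the concentration required for 50% inhibition of growth.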 Calls of active or inactive are those of the source. Rule as the data show it: active = GI50 up to about 1.1 µM and inactive = higher.
Experiments:
Assay in all cases: growth of human tumour cells (NCI), 48 h
NCI-H522 = tested on: NCI-H522
SK-OV-3 = tested on: SK-OV-3
NCI-H460 = tested on: NCI-H460
DU-145 = tested on: DU-145
M14 = tested on: M14
Malme-3M = tested on: Malme-3M
OVCAR-4 = tested on: OVCAR-4
HOP-92 = tested on: HOP-92
SN12C = tested on: SN12C
SR = tested on: SR
CCRF-CEM = tested on: CCRF-CEM
CAKI-1 = tested on: CAKI-1
T47D = tested on: T47D
A498 = tested on: A498
LOX IMVI = tested on: LOX IMVI
SK-MEL-28 = tested on: SK-MEL-28
EKVX = tested on: EKVX
HCC 2998 = tested on: HCC 2998
IGROV-1 = tested on: IGROV-1
SF-295 = tested on: SF-295

Measured: GI50

O=C(O)C(Cc1cccs1)C(=O)O
inactive: NCI-H522 > 100 µM | SK-OV-3 > 100 µM | NCI-H460 > 100 µM | DU-145 > 100 µM | M14 > 100 µM | Malme-3M > 100 µM | OVCAR-4 > 100 µM | HOP-92 > 100 µM | SN12C > 100 µM | SR > 100 µM | CCRF-CEM > 100 µM | CAKI-1 > 100 µM | T47D > 100 µM | A498 > 100 µM | LOX IMVI > 100 µM | SK-MEL-28 > 100 µM | EKVX > 100 µM | HCC 2998 > 100 µM | IGROV-1 > 100 µM

COC(=O)/C=C1/OC(c2ccccc2)=CC1=O
inactive: NCI-H522 16.9 µM | SK-OV-3 17.5 µM | SF-295 14.2 µM | NCI-H460 19.7 µM | DU-145 13.7 µM | M14 23.3 µM | Malme-3M 18.9 µM | OVCAR-4 16.4 µM | HOP-92 22.9 µM | SN12C 19 µM | SR > 23.4 µM | CCRF-CEM 6.65 µM | CAKI-1 19.4 µM | T47D 20.9 µM | A498 13.7 µM | LOX IMVI 16.2 µM | SK-MEL-28 19.9 µM | EKVX 17.9 µM | HCC 2998 18.2 µM | IGROV-1 16 µM

C1CSCCSCCCSCCSCCCSCCSCCCSCCSC1
inactive: NCI-H522 > 100 µM | SK-OV-3 > 100 µM | SF-295 > 100 µM | NCI-H460 > 100 µM | DU-145 > 100 µM | M14 > 100 µM | Malme-3M > 100 µM | OVCAR-4 > 100 µM | HOP-92 > 100 µM | SN12C > 100 µM | SR > 100 µM | CCRF-CEM > 100 µM | CAKI-1 > 100 µM | T47D 57 µM | A498 > 100 µM | LOX IMVI > 100 µM | SK-MEL-28 > 100 µM | EKVX > 100 µM | HCC 2998 > 100 µM | IGROV-1 > 100 µM

Cc1ccc2c(c1C)C(=O)/C(=C/c1ccccc1C(=O)O)C2
inactive: NCI-H522 > 100 µM | SF-295 > 100 µM | NCI-H460 > 100 µM | DU-145 > 100 µM | M14 > 100 µM | Malme-3M > 100 µM | OVCAR-4 > 100 µM | HOP-92 > 100 µM | SN12C > 100 µM | SR > 100 µM | CCRF-CEM 76.9 µM | CAKI-1 > 100 µM | T47D > 100 µM | A498 > 100 µM | LOX IMVI > 100 µM | SK-MEL-28 > 100 µM | EKVX > 100 µM | HCC 2998 > 100 µM | IGROV-1 > 100 µM

CC(C)=CCc1c(O)c(CC=C(C)C)c2oc(-c3ccc(O)cc3O)c(CC=C(C)C)c(=O)c2c1O
inactive: NCI-H522 7.31 µM | SK-OV-3 13.3 µM | SF-295 7.45 µM | NCI-H460 4.48 µM | DU-145 12.4 µM | M14 8.83 µM | Malme-3M 16.3 µM | OVCAR-4 5.51 µM | HOP-92 8.26 µM | SN12C 8.59 µM | SR 2.34 µM | CCRF-CEM 2.1 µM | CAKI-1 12.7 µM | T47D 3.97 µM | A498 13.8 µM | LOX IMVI 5.26 µM | SK-MEL-28 12.2 µM | EKVX 12.4 µM | HCC 2998 4.06 µM | IGROV-1 10.6 µM

CN(C)Cc1cc(C(=O)/C=C/c2ccc(F)cc2)cc(CN(C)C)c1O
inactive: NCI-H522 15.2 µM | SF-295 14 µM | NCI-H460 10.5 µM | DU-145 42.2 µM | M14 12.4 µM | Malme-3M 17.7 µM | OVCAR-4 41.8 µM | HOP-92 29.2 µM | SN12C 18.4 µM | SR 20.6 µM | CCRF-CEM 17 µM | CAKI-1 18.7 µM | T47D 18 µM | A498 24.5 µM | LOX IMVI 5.92 µM | SK-MEL-28 29.2 µM | EKVX 35.6 µM | HCC 2998 > 10 µM | IGROV-1 22.4 µM

Reference: ChEMBL document CHEMBL1201862, “PubChem BioAssay data set” (2004)
